Structures are written as SMILES. Where a name gives a salt, the structure may show the parent alone. Read-outs that look alike come from different tables or passages of the source. A value given as a limit tells only on which side of the number the result lay.

The subject of test [1] is OVCAR-4. Kind of test: Cell viability of OVCAR-4 cells after treatment with test compound. It counts as cell-based.
Test [2] deals with SKOV-3 cancer cell lines. Kind of test: Cell viability of SKOV-3 cancer cell lines after treatment with test compound. Type of test: cell-based. The procedure: […] Cell viability is evaluated following treatment with a compound as disclosed in Table B. Viability of cancer cells following treatment is indicated according to the following legend:
Setting [3] is: Homo sapiens, SK-OV-3, SKOV-3 cancer cells.

Regarding `CN[C@@H](C)C(=O)N[C@H]1CCS[C@H]2CC(C)(C)[C@@H](C(=O)N[C@@H]3CCOc4ccccc43)N2C1=O` [Compound 1, (4S,7S)—N—((R)-chroman-4-yl)-8,8-dimethyl-4-((S)-2-(methylamino)propanamido)-5-oxooctahydropyrrolo[2,1-b][1,3]thiazepine-7-carboxamide hydrochloride], the IC50 (commonly the concentration that inhibits the measured activity by half) lay within 10 to 100 nM in test [1] (Homo sapiens) and 1 to 10 nM in test [2] (setting [3]).

Turning to `CN[C@@H](C)C(=O)N[C@H]1CCS[C@H]2CC(C)(C)[C@@H](C(=O)N[C@@H]3CCSc4ccccc43)N2C1=O` [Compound 2, (4S,7S)-8,8-dimethyl-4-((S)-2-(methylamino)propanamido)-5-oxo-N—((R)-thiochroman-4-yl)octahydropyrrolo[2,1-b][1,3]thiazepine-7-carboxamide hydrochloride], the IC50 in test [1] (Homo sapiens) lay in the range of 100 to 1000 nM; in test [2] (setting [3]), 1 to 10 nM.

Take `CN[C@@H](C)C(=O)N[C@H]1CCS[C@H]2CC3(CC=CC3)[C@@H](C(=O)N[C@@H]3CCOc4ccccc43)N2C1=O` [Compound 3, (4′S,7′S,9a'S)-4′-((S)-2-(chloro(methyl)-15-azaneyl)propanamido)-N—((R)-chroman-4-yl)-5′-oxo-2′,3′,4′,5′,9′,9a′-hexahydro-7′H-spiro[cyclopentane-1,8′-pyrrolo[2,1-b][1,3]thiazepin]-3-ene-7′-carboxamide]: the IC50 was in the range of 10 to 100 nM in test [1] (Homo sapiens) and 1 to 10 nM in test [2] (setting [3]).

As for `CN[C@@H](C)C(=O)N[C@H]1CCS[C@H]2CC3(CC=CC3)[C@@H](C(=O)N[C@@H]3CCSc4ccccc43)N2C1=O` [Compound 4, (4′S,7′S,9a'S)-4′-((S)-2-(chloro(methyl)-15-azaneyl)propanamido)-5′-oxo-N—((R)-thiochroman-4-yl)-2′,3′,4′,5′,9′,9a′-hexahydro-7′H-spiro[cyclopentane-1,8′-pyrrolo[2,1-b][1,3]thiazepin]-3-ene-7′-carboxamide], the IC50 in test [1] (Homo sapiens) lay in the range of 100 to 1000 nM; in test [2] (setting [3]), 1 to 10 nM.

Consider `CN[C@@H](C)C(=O)N[C@H]1CCS[C@H]2CC3(CCCC3)[C@@H](C(=O)N[C@@H]3CCOc4ccccc43)N2C1=O` [Compound 5, (4′S,7′S,9a'S)-4′-((S)-2-(chloro(methyl)-15-azaneyl)propanamido)-N-(chroman-4-yl)-5′-oxohexahydro-7′H-spiro[cyclopentane-1,8′-pyrrolo[2,1-b][1,3]thiazepine]-7′-carboxamide], for which the results for the IC50 in test [1] (Homo sapiens) and in test [2] (setting [3]) were 10 to 100 nM and 1 to 10 nM, respectively.

Take `CN[C@@H](C)C(=O)N[C@H]1CCS[C@H]2CC3(CCCC3)[C@@H](C(=O)N[C@@H]3CCSc4ccccc43)N2C1=O` [Compound 6, (4′S,7′S,9a'S)-4′-((S)-2-(chloro(methyl)-15-azaneyl)propanamido)-5′-oxo-N—((R)-thiochroman-4-yl)hexahydro-7′H-spiro[cyclopentane-1,8′-pyrrolo[2,1-b][1,3]thiazepine]-7′-carboxamide]: the IC50 in test [1] (Homo sapiens) lay within 100 to 1000 nM; in test [2] (setting [3]) it was 1 to 10 nM.

For `CN[C@@H](C)NC(=O)N[C@H]1CCSC2CC(C)(C)[C@@H](C(=O)N[C@@H]3CCOc4ccccc43)N2C1=O` (stereo partly drawn) [Compound 7, (4S,7S)—N—((R)-chroman-4-yl)-8,8-dimethyl-4-(3-((R)-1-(methylamino)ethyl)ureido)-5-oxooctahydropyrrolo[2,1-b][1,3]thiazepine-7-carboxamide hydrochloride], the IC50 in test [1] (Homo sapiens) and in test [2] (setting [3]) was > 1000 nM throughout.

For the compound `CC[C@H](NC)C(=O)N[C@H]1CCSC2CC(C)(C)[C@@H](C(=O)N[C@@H]3CCOc4ccccc43)N2C1=O` (stereo partly drawn) [Compound 8, (4S,7S)—N—((R)-chroman-4-yl)-8,8-dimethyl-4-((S)-2-(methylamino)butanamido)-5-oxooctahydropyrrolo[2,1-b][1,3]thiazepine-7-carboxamide hydrochloride], the concentration for half-maximal inhibition (IC50) in test [1] (Homo sapiens) is 10 to 100 nM; in test [2] (setting [3]), 1 to 10 nM.

Consider `CN[C@@H](C)C(=O)N[C@H]1CCO[C@H]2CC3(CCCC3)[C@@H](C(=O)N[C@@H]3CCOc4ccccc43)N2C1=O` [Compound 9, (4′S,7′S,9a'S)-4′-((S)-2-(chloro(methyl)-16-azaneyl)propanamido)-N-(chroman-4-yl)-5′-oxohexahydro-7′H-spiro[cyclopentane-1,8′-pyrrolo[2,1-b][1,3]oxazepine]-7′-carboxamide], for which the IC50 in test [1] (Homo sapiens) was 100 to 1000 nM; in test [2] (setting [3]) it was 1 to 10 nM.

Turning to `CC[C@H](NC)C(=O)N[C@H]1CCO[C@H]2CC3(CCCC3)[C@@H](C(=O)N[C@@H]3CCOc4ccccc43)N2C1=O` [Compound 10, (4′S,7′S,9a'S)-4′-((S)-2-(chloro(methyl)-16-azaneyl)butanamido)-N-(chroman-4-yl)-5′-oxohexahydro-7′H-spiro[cyclopentane-1,8′-pyrrolo[2,1-b][1,3]oxazepine]-7′-carboxamide], the IC50 in test [1] (Homo sapiens) was 100 to 1000 nM; in test [2] (setting [3]), 1 to 10 nM.

Turning to `CN[C@@H](C)C(=O)N[C@H]1CCS[C@H]2CC3(CC=CC3)[C@@H](C(=O)N[C@@H]3CCCc4ccccc43)N2C1=O` [Compound 11, (4′S,7′S,9a'S)-4′-((S)-2-(chloro(methyl)-15-azaneyl)propanamido)-5′-oxo-N-(1,2,3,4-tetrahydronaphthalen-1-yl)-2′,3′,4′,5′,9′,9a′-hexahydro-7′H-spiro[cyclopentane-1,8′-pyrrolo[2,1-b][1,3]thiazepin]-3-ene-7′-carboxamide], the IC50 in test [1] (Homo sapiens) fell in the range of 10 to 100 nM; in test [2] (setting [3]), 1 to 10 nM.

On to `CN[C@@H](C)C(=O)N[C@H]1CCO[C@H]2CC3(CC=CC3)[C@@H](C(=O)N[C@H]3CCOc4ccccc43)N2C1=O` [Compound 12, (4′S,7′S,9a'S)-4′-((S)-2-(chloro(methyl)-15-azaneyl)propanamido)-N—((S)-chroman-4-yl)-5′-oxo-2′,3′,4′,5′,9′,9a′-hexahydro-7′H-spiro[cyclopentane-1,8′-pyrrolo[2,1-b][1,3]oxazepin]-3-ene-7′-carboxamide], for which the IC50 in test [1] was > 1000 nM; in test [2] (SKOV-3 cancer cells), 100 to 1000 nM.

Regarding `CC[C@H](NC)C(=O)N[C@H]1CCO[C@H]2CC3(CC=CC3)[C@@H](C(=O)N[C@@H]3CCOc4ccccc43)N2C1=O` [Compound 13, (4′S,7′S,9a'S)-4′-((S)-2-(chloro(methyl)-16-azaneyl)butanamido)-N—((S)-chroman-4-yl)-5′-oxo-2′,3′,4′,5′,9′,9a′-hexahydro-7′H-spiro[cyclopentane-1,8′-pyrrolo[2,1-b][1,3]oxazepin]-3-ene-7′-carboxamide], the IC50 is 100 to 1000 nM in test [1] (Homo sapiens) and 1 to 10 nM in test [2] (setting [3]).

Values taken from US20250129099A1, “INHIBITOR OF APOPTOSIS (IAP) PROTEIN ANTAGONISTS” (Sanford Burnham Prebys Medical Discovery Institute, priority 2021, published 2025).
